US20120202837A1, “SPIROCYCLIC PIPERIDINE DERIVATIVES USEFUL AS RENIN INHIBITORS” (priority 2009, published 2012)
pIC50: −log10 of the molar value.

Tests used:
Human recombinant renin = target: T1, Human recombinant renin (Homo sapiens, UniProt P00797); test: Inhibition of human recombinant renin (buffer assay); assay type: biochemical; conditions: buffer: 50 mM MOPS pH 7.4, 100 pM renin, 6 μM fluorescent peptide, 37° C., 3 hours
T1 construct: purchased Proteos
T1 sequence (P00797 67-406): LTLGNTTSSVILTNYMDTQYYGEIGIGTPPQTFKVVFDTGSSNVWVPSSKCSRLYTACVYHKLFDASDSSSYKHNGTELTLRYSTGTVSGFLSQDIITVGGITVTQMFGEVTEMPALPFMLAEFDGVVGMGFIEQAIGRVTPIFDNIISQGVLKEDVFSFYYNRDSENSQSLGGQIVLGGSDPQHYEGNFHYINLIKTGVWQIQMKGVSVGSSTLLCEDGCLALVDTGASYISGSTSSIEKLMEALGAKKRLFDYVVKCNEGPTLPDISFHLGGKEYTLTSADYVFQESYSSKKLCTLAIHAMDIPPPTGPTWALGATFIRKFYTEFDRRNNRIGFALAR
Description: Human recombinant renin (Proteos) in 50 mM MOPS pH 7.4, 100 mM NaCl, 0.002% Tween 20 at a final concentration of 100 pM is incubated with inhibitors from a 50 fold concentrated DMSO solution and 6 μM of an internally-quench fluorescent peptide: DNP-Lys-His-Pro-Phe-His-Leu-Val-Ile-His-D,L-Amp (SEQ ID NO: 1); Paschalidou K. et al., Biochem J, 2004, 382, 1031). The reactions take place in a Costar 384 well black plate (#3573) at 37° C. for 3 hours. Fluorescence is measured at times 0 and 3 hours with a SpectraMax Gemini EM reader set at an excitation wavelength of 328 nm and at an emission wavelength of 388 nm. Background fluorescence at t=0 is subtracted from the measurement at t=3 hours. Inhibitory activity of the compounds is expressed as IC50.

Renin in human plasma = target: T2, Renin in human plasma (Homo sapiens, UniProt P00797); test: Inhibition of renin in human plasma; assay type: biochemical; conditions: human EDTA plasma, recombinant renin added at 1 nM, 6 μM substrate, 37° C., 1 hour
T2 construct: purchased Proteos; host or cells: added to human EDTA-collected plasma
T2 sequence (P00797 67-406): T1 sequence (P00797 67-406)
Description: Human EDTA-collected plasma is rapidly thawed in warm water and centrifuged at 2900 g for 15 minutes at 4° C. The supernatant is collected and recombinant renin (Proteos) is added at a final concentration of 1 nM. The plasma is transferred to a Costar black 384 well plate (#3573). Renin inhibitors are added from a 17.5 fold concentrated DMSO solution and pre-incubated at 37° C. for 10 minutes. The internally-quench fluorescent peptide QX1520™-Lys-His-Pro-Phe-His-Leu-Val-Ile-His-Lys (5-FAM) (Anaspec) is diluted in 3M Tris pH 7.2, 200 mM EDTA and added to the plasma. The final concentrations are: 6 μM substrate, 342 mM Tris, 23 mM EDTA. The plate is incubated at 37° C. for 1 hour. The plate is read in a SpectraMax Gemini EM reader set at an excitation wavelength of 490 nm and an emission wavelength of 520 nm at times 0 and 1 hour. Background fluorescence at t=0 is subtracted from the measurement at t=1 hour. Inhibitory activity of the compounds is expressed as IC50.

pIC50 (Human recombinant renin)	pIC50 (Renin in human plasma)	SMILES
9.70	8.85	CC(=O)NCCc1ccccc1-c1ccc([C@@H]2CNCC[C@]23OCc2cc(F)c(F)cc23)c(C)c1 (racemic) [Example 4, rac-N-(2-{4′-[(1R,3′S)-5,6-Difluoro-3H-spiro[2-benzofuran-1,4′-piperidin]-3′-yl]-3′-methyl-2-biphenylyl}ethyl)acetamide]
8.80	7.74	COCCCc1ccccc1-c1ccc([C@@H]2CNCC[C@]23OCc2cn(C)c(=O)cc23)c(C)c1 (racemic) [Example 5, rac-(1R,3′S)-3′-[2′-(3-Methoxypropyl)-3-methyl-4-biphenylyl]-5-methyl-3,5-dihydro-6H-spiro[furo[3,4-c]pyridine-1,4′-piperidin]-6-one]
9.18	9.09	Cc1cc(-c2ccccc2CCNC(=O)CO)ccc1[C@H]1CNCC[C@@]12OC(=O)c1cc(F)c(F)cc12 [Example 11, N-(2-{4′-[(1R,3′S)-5,6-Difluoro-3-oxo-3H-spiro[2-benzofuran-1,4′-piperidin]-3′-yl]-3′-methyl-2-biphenylyl}ethyl)-2-hydroxyacetamide]
9.59	9.00	CC(=O)NCCc1ccccc1-c1onc([C@H]2CNCC[C@@]23OCc2cc(F)c(F)cc23)c1Br [Example 13, N-[2-(2-(4-Bromo-3-[(1R,3′R)-5,6-difluoro-3H-spiro[2-benzofuran-1,4′-piperidin]-3′-yl]-5-isoxazolyl)phenyl)ethyl]acetamide]
